2 compounds from US20260374739A1, “SMALL MOLECULAR WEIGHT CHEMICAL COMPOUND TO ANTAGONIZE EPH-EPHRIN TETRAMERIZATION AND INHIBIT BIDIRECTIONAL SIGNALING” (THE BOARD OF REGENTS OF THE UNIVERSITY OF TEXAS SYSTEM, priority 2022, published 2026) can be followed below.

Like-named read-outs stand apart in the source and are kept apart here. Bounds are passed on as bounds.

The target in test [1] is T1, EphA3-EphrinA1 (Homo sapiens, UniProt P29320).
T1 sequence (P29320 21-541 limits assumed): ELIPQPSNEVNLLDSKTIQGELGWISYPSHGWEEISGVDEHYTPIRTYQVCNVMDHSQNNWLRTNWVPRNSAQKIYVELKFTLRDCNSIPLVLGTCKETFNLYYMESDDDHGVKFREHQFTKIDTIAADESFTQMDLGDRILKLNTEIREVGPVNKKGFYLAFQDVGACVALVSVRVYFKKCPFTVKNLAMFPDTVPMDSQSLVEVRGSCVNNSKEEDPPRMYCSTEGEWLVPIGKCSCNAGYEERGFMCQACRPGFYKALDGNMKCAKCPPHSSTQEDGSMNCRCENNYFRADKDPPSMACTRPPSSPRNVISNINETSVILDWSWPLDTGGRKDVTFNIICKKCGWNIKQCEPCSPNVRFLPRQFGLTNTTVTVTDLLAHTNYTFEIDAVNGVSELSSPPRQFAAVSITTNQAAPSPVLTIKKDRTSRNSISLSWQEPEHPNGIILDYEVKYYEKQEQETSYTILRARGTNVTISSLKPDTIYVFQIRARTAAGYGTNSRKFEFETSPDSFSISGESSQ
Kind of test: Octet, immobilized human EphA3 binding to human EphrinA1. The settings on record: Human EphA3-EphrinA1, immobilized human EphA3, 50 nM soluble human EphrinA1. As to the method:
(§1) The Octet system was used to probe the interactions of epitope-tagged human A class proteins, focusing on immobilized EphA3 binding to two of its cognate ligands, EphrinA1 and EphrinA5, as well as EphB2 binding to EphrinA5 (FIG. 27). […] Focusing on the dimerization-driven EphA3-EA5 interaction first (green sensorgram trace), which mimics what is disclosed above for EphB4-EB2, the initial binding of soluble EphrinA5 to the immobilized EphA3 is very fast and strong with a long and steep 84° slope of response that then quickly bends around 35 sec into the association step to form a more gradual tetramerization accumulation slope. […] However, again like the EphB4-EB2 interaction, once placed into dissociation, a significant fraction of the bound EA5 protein melts quickly and the off phase continues downward with a slow gradual decline in bound protein. Although the dissociation was for only 500 sec, the continued downward slope of the response indicates most of the bound EA5 protein would eventually melt off of the immobilized EphA3 protein. This is referred to as a classic dimerization-driven interaction, fast and strong initial binding in the association step but with most of the bound protein coming off in the dissociation due to lack of formation of stable tetramers. EphA3 interacts with EphrinA1 with totally different kinetics/dynamics (orange sensorgram trace). Here, the initial high 84° dimerization slope phase is extremely brief (5 sec) with the binding quickly snapping into a linear tetramerization accumulation phase with a 25° slope, and that once placed into dissociation step almost no bound protein melts, just the small amount that would represent dimer interactions falling off in the first few seconds after being placed into dissociation. […] EphB2 interacting with EA5 is similar to the EphA3-EA1 interaction, in that the association step is characterized by a very brief (5 sec) high 84° slope phase that quickly bends into a more gradual tetramer accumulation phase (blue sensorgram trace). […] The strong initial off phase of the EphB2-EA5 complexes in the dissociation represents both the melting of weak dimers and of the relatively weaker affinity tetramers formed by the cross A/B class EphB2-EA5 molecules.
(§2) While there is no effect of A20 on the initial 5 sec fast EphA3-EA1 dimer phase, there is a very strong effect of compound on tetramer accumulation. It was estimated that >70% of the EphA3-EA1 binding interaction can be attributed to the tetramer which is effectively disrupted by compound, with very little binding activity attributed to the dimer and more accurately the dimerization:tetramerization ratio of this interaction is 10:90 not 30:70. […] Since this is a dimerization-driven type interaction (dimerization:tetramerization ratio of here is 72:28), the overall effect of compound on this interaction is muted.

The target of test [2] is T2, EphA3-EphrinA5 (Homo sapiens, UniProt P29320).
T2 sequence (P29320 21-541 limits assumed): T1 sequence (P29320 21-541 limits assumed)
As to the kind of experiment: Octet, immobilized human EphA3 binding to human EphrinA5. Here is the method:
as §1, §2
On the technique in general: Biolayer interferometry detects binding as a change in optical thickness at a sensor tip.

Test [3] has as its target T3, EphB1-EphrinB2 (EB2) (Rattus norvegicus, UniProt P09759).
T3 construct: rat EphB1-Fc residues 18-538; mouse EB2-His residues 18-232; purchased R&D Systems (EphB1-Fc); Sino Biologicals (EB2-His)
T3 sequence (P09759 18-538): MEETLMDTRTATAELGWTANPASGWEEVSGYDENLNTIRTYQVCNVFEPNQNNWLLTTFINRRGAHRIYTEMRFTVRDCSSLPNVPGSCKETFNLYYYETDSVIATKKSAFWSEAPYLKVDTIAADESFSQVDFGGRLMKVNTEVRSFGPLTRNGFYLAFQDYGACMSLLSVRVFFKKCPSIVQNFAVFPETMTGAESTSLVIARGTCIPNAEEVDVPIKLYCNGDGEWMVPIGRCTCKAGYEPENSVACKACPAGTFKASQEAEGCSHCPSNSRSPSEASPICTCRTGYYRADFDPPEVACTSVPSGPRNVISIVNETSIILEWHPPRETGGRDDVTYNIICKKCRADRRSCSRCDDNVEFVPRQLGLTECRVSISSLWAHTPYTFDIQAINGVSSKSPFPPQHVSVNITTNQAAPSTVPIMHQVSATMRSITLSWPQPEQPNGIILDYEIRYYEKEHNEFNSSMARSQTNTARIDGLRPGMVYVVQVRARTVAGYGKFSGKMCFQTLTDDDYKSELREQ
Kind of test: Alpha assay EphB1-EphrinB2 (EB2) interaction. It counts as binding, mouse EB2. An excerpt:
A chemiluminescent AlphaScreen™ bead-based proximity assay suitable for HTS was developed to measure the receptor-ligand interaction formed between EphB1 and EphrinB2 (EB2) ectodomains (FIG. 3). Here, when singlet oxygen molecules generated by high energy irradiation of donor beads travel over a constrained distance to excite acceptor beads, a chemiluminescent signal is generated and detected. If an analyte interferes with the EphB1-EB2 protein-protein interaction, close proximity of the donor and acceptor beads will be disrupted resulting in diminished or lost energy transfer and reduced acceptor bead emission.
Test was conducted in the Alpha assay, to see if purified soluble Reelin (previously shown to bind EphB1 ectodomain) can interfere with EphB1-EB2 binding.
The EphB1-EB2 screen was conducted using 0.8 nM of each protein, 50 ng beads per well, and assessed at 5 μM a library of −240,000 small, drug-like chemicals. […] They were also tested in a counter screen designed to identify non-specific compounds. Here, a single-protein Alpha assay was set up using a dual-tagged EphB2-His-Fc ectodomain protein that can bind both donor and acceptor beads to bring them into proximity. If a selected compound simply absorbs the chemiluminescent signal or interferes with bead function/binding or protein folding, it was hypothesized that it would also reduce signals in the single protein assay, and would consider it a false positive.

The IC50 is the concentration needed to halve the response being measured. Consider `Oc1ccc(CN2CCOCC2)c2cccnc12` [Compound 1, 5-(morpholinomethyl)quinolin-8-ol], for which the IC50 was 8.24 µM in test [1] (association, absolute, read-out: Absolute Association IC50); 6.29 µM in test [1] (association, relative, read-out: Relative Association IC50); 6.73 µM in test [1] (dissociation, absolute, read-out: Absolute Dissociation IC50); 2.39 µM in test [1] (dissociation, relative, read-out: Relative Dissociation IC50); 3.22 µM in test [2]; 100 µM in test [2] (Human EphA3-EphrinA5, immobilized human EphA3, 50 nM soluble human EphrinA5, association, absolute, read-out: Absolute Association IC50). For the same compound, the half-inhibitory concentration (IC50) in test [2] (Human EphA3-EphrinA5, immobilized human EphA3, 50 nM soluble human EphrinA5, association, relative, read-out: Relative Association IC50) was under 1 µM; in test [2] (Human EphA3-EphrinA5, immobilized human EphA3, 50 nM soluble human EphrinA5, dissociation, relative, read-out: Relative Dissociation IC50), 1.24 µM. Further, the “antagonism of EphB1-EB2” value in test [3] is recorded as “some inhibitory activity though it was not apparent until higher concentrations”.

For the compound `COCc1cc(CN2CCN(C)CC2)c(O)c2ncccc12` [Compound 77, 5-(methoxymethyl)-7-((4-methylpiperazin-1-yl)methyl)quinolin-8-ol, reference compound], the “antagonism of EphB1-EB2” value in test [3] is on record as “did not exhibit any activity”.
